Key:
E. coli K12 = experiment: Attached cells challenge test on leaves (Example 1); format: cell-based; settings: PAA 0 ppm
Listeria innocua = experiment: as above; format: cell-based; settings: PAA 0 ppm
[1] = electron-Volts; cited from earlier work
[2] = test system: indigenous microorganisms (Aerobic Plate Counts); format: cell-based

For `CC(O)C(=O)O` (stereo not drawn) [LA, lactic acid], the “log reduction of attached cells (quantity not given)” value (“log reduction … (quantity not given)” for short) (E. coli K12; Romaine, LA 0.6%) was 0.24, the “log reduction … (quantity not given)” value (E. coli K12; Romaine, LA 0.9%) was 0.37 and the “log reduction … (quantity not given)” value (E. coli K12; Spinach, LA 0.6%) was 0.09. For the same compound, the “log reduction … (quantity not given)” value (E. coli K12; Spinach, LA 0.9%) was 0.42, the “log reduction … (quantity not given)” value (E. coli K12; Spinach, LA 1.2%) was 0.81 and the “log reduction … (quantity not given)” value (Listeria innocua; Romaine, LA 0.6%) was 1.1. For the same compound, the “log reduction … (quantity not given)” value (Listeria innocua; Romaine, LA 0.9%) was 1.4, the “log reduction … (quantity not given)” value (Listeria innocua; Romaine, LA 1.2%) was 1.5 and the “log reduction … (quantity not given)” value (Listeria innocua; Spinach, LA 0.6%) was 0.1. The “log reduction … (quantity not given)” value (Listeria innocua; Spinach, LA 0.9%) was 0.2 and the “log reduction … (quantity not given)” value (Listeria innocua; Spinach, LA 1.2%) was 0.2.

For `[O][Cl+][O-]` [Chlorine Dioxide], the “Oxidation Capacity” value [1] is listed as 1.57 eV.

For `CC(=O)OO` [PAA, peroxyacetic acid], the “Log Reduction of Aerobic Plate Counts vs untreated” value [2] is given as 0.7 Log cfu/g and the “Oxidation Capacity” value [1] is given as 1.81 eV.

In the case of `O=[O+][O-]` [Ozone], the “Oxidation Capacity” value [1] is listed as 2.07 eV.

Source: patent US8263151B2, “Peracid and 2-hydroxy organic acid compositions and methods for treating produce” (Fresh Express, Incorporated, priority 2008, dated 2012)
